Here are results for six compounds from US10799593B2, “Nanodiamond particle complexes” (priority 2008, dated 2020).

The nature of data set [1]: Particle size and zeta potential measurement (DLS) of ND-drug complexes. Type of data set: physicochemical. The note with it: for average particle size upon complexing with NDs: ND 1 mg/mL, therapeutic 0.1 mg/mL. The protocol:
The particle size and zeta potential of the complexes were measured using a Zetasizer Nano (Malvern Instruments). […] ND:Purvalanol A complexes were prepared in a similar manner in 5% aqueous DMSO as described previously. […] All size measurements were performed at 25° C. at a 90° scattering angle. Mean hydrodynamic diameters were obtained via cumulative analysis of 11 measurements.

A short description of data set [2]: ND pulldown with UV-Vis spectrophotometric analysis of drug adsorption. The settings on record: 14,000 rpm, 2 hours, 25° C. The format is physicochemical. The protocol: All samples underwent centrifugation at 14,000 rpm for 2 hours at 25° C., where the supernatant was then subsequently collected for spectroscopic scans from 200 nm to 600 nm. Drug loading concentrations were determined via ND-complex pull-down experiments which comprised of an initial absorbance reading, then a 2 hour centrifuge of all samples at 25° C. and 14000 RPM followed by a final absorbance reading. The concentration of loaded drug was then calculated by measuring the difference between the initial and final readings.

Data set [3] in a line: Dispersion in water / turbidity of drug with and without NDs. The note with it: DMSO mixtures diluted 20 fold in water to 5% DMSO; 0.1 mg/ml Purvalanol A, 1 mg/ml ND. The format is physicochemical.
Data set [4] concerns HepG2 tissue culture cells. Description: DNA fragmentation (laddering) assay. Type of data set: cell-based. The note with it: 24 hours, 10:1 ND:Purvalanol A in 5% DMSO in water, 1:10 dilution. The procedure:
A 1:10 dilution of 5% DMSO in water, NDs in 5% DMSO in water (1 mg/ml), ND:Purvalanol A in 5% DMSO in water (10:1 ratio—1 mg/ml ND, 0.1 mg/ml Purvalanol A), and Purvalanol A in 5% DMSO in water (0.1 mg/ml) were added to HepG2 tissue culture cells and grown for 24 hours. The cultured cells were lysed in 500 μL lysis buffer (10 mM Tris-HCl, pH 8.0, 10 mM EDTA, 1% Triton X-100). 30-minute incubations at 37° C. followed separate RNase A and proteinase K treatment. Following phenol chloroform extraction, nuclear DNA was isolated in isopropyl alcohol and stored at −80° C. overnight. The samples were then resuspended in DEPC water following a 70% ethanol wash and electrophoresed using a 0.8% agarose gel, and finally stained with ethidium bromide.

Data set [5] can be described thus: Insulin desorption from NDs in NaOH of varying pH. The format is physicochemical. The note with it: 4:1 ratio; NaOH at pH 10.5. The protocol: Determination of insulin adsorption to NDs was performed by protein detection assays before and after centrifugation. Insulin was added to a ND suspension, centrifuged at 14,000 rpm for 2 hours and the resultant solution extracted and quantified. Detection of desorbed insulin was performed by adding alkaline solutions of 1 mM NaOH, adjusted for varying pH, to samples of ND-insulin in suspension. Binding ratios were determined similar to the adsorption test.
The desorption assays were conducted in a similar manner as the adsorption assays. Aqueous solutions of FITC-labeled and standard insulin were added to ND suspensions at 5:1 and 4:1 ratios, respectively. Initial and centrifuged samples were measured, and the amount of insulin desorbed was calculated. […] Separate tests at pH 10.7 show the ND-insulin complex achieving 53.3±1.2% desorption.

A short description of data set [6]: 5-day insulin desorption test. Type of data set: physicochemical. The note with it: for cumulative insulin released from NDs by day 1: of total adsorbed insulin, 4:1 ratio. The procedure:
Additionally, a 5-day desorption test was conducted to determine cumulative insulin release. Samples were prepared by combining NDs and insulin (4:1 ratio), centrifuging at 14,000 rpm for 2 hours and extracting the remaining solution to remove any non-adsorbed insulin. Subsequently, a 1 mM NaOH solution adjusted to pH 10.5 was added to the samples, mixed thoroughly and centrifuged after a 24-hour period to determine protein concentration utilizing a BCA assay. In addition to alkaline-mediated release, water was added to a separate set of samples. The samples were replenished with NaOH or water after each measurement for the respective conditions, and the process was repeated every 24 hours over the course of 5 days.

Data set [7] is described as follows: DLS analysis of NDs, insulin and ND-insulin (size, PDI, zeta potential). The format is physicochemical. The note with it: for Average Size (μm): DLS hydrodynamic cluster size. The procedure: Hydrodynamic size and zeta potential of samples was measured with a Zetasizer Nano (Malvern Instruments, Worcestershire, United Kingdom). NDs and insulin were prepared as previously described. Briefly, the particles were suspended in buffer with corresponding pH at a concentration of 50 mg/mL. The size measurements were performed at 25° C. and at a 173° scattering angle. The mean hydrodynamic diameter was determined by cumulative analysis. The zeta potential determinations were based on electrophoretic mobility of the microparticles in the aqueous medium, which was performed using folded capillary cells in automatic mode.

The subject of data set [8] is RAW 264.7 macrophage cells. Description: MTT cell viability assay after serum starvation. The note with it: serum-starved 8 hours, 24-hour recovery, 0.1 μM versus 1 μM insulin. The format is cell-based, murine. The procedure: RAW 264.7 murine macrophages were plated in 96-well plates, serum-starved for 8 hours and then incubated for 24 hours. Post-starvation media was composed of the following conditions: DMEM, 0.1 μM insulin, 1 μM insulin, DMEM 10% FBS, approximately 0.1 μM insulin released from ND-insulin complex by NaOH at pH 10.5 (insulin present in media), resultant solution from centrifuged ND-insulin in water, ND-insulin treated with NaOH at pH 10.5 (1 μM total insulin, ND-insulin complex present in media) and ND-insulin (1 μM total insulin, ND-insulin complex present in media). Insulin released from NDs was prepared by centrifuging samples of NDs with adsorbed insulin in NaOH and extracting the resultant solution, which could be reconstituted with media to 0.1 μM insulin. In a similar fashion, water was utilized as a neutral solution for relevant desorption analysis. Methylthiazolyldiphenyl-tetrazolium bromide (MTT) solution (Sigma-Aldrich) was added corresponding to 10% of total volume, and then incubated for 3 hours. After formazan crystal formation, the media was removed and MTT solvent, 0.1N HCl in anhydrous isopropanol (Sigma-Aldrich), was added to samples to solubilize the MTT dye. Sample absorbance measurements occurred at 570 nm, accounting for background at a wavelength of 690 nm.

The subject of the next data set is Insulin 1 (Ins1). Description: Quantitative RT-PCR gene expression, Ins1. Type of data set: cell-based, murine. The note with it: 3T3-L1 adipocytes; serum-starved 4 hours, 2-hour recovery; (2) 0.1 μM insulin. The protocol:
(§1) RT-PCR procedures were conducted as described previously. 3T3-L1 adipocytes were plated in 6-well plates, serum-starved for 4 hours and then recovered in media solutions of DMEM, insulin, approximately 0.1 μM insulin released from ND-insulin by NaOH (pH 10.5), resultant solution from centrifuged ND-insulin in pH-neutral water, ND-insulin treated with NaOH (1 μM total insulin) and NDs with bound insulin (ND-insulin, 1 μM total insulin). Preparations of media solutions containing DMEM, insulin, NDs and NaOH were conducted in a similar fashion to those implemented for the MTT assay. RNA isolation was completed by lysing cells with TRIzol reagent (Invitrogen Corporation, Carlsbad, Calif.) and added to chloroform to obtain genetic material by centrifugation. cDNA synthesis was performed using the iScript Select cDNA Synthesis Kit (Bio-Rad, Hercules, Calif.). PCR expression of the Ins1 and Csf3/G-csf genes (Integrated DNA Technologies, Coralville, Iowa) were quantified by the MyiQ Single Color Real-Time PCR machine (Bio-Rad, Hercules, Calif.) using SYBER Green detection reagents (Quanta Biosciences, Gaithersburg, Md.). The Rpl32 gene (Integrated DNA Technologies) served as the housekeeping gene for normalization of cDNA among samples.

Data set [9] concerns Granulocyte colony-stimulating factor (Csf3/G-csf). Description: Quantitative RT-PCR gene expression, Csf3/G-csf. The format is cell-based, murine. The settings on record: 3T3-L1 adipocytes; (2) 0.1 μM insulin. The protocol: as §1
The conditions of data set [10]: reference [38]; cited from earlier work.
A short description of data set [11]: Nanodiamond-drug binding assays (UV-vis spectrophotometry, centrifugation). The settings on record: UV-vis spectrophotometry and centrifugation (14000 rpm) pelleting. Type of data set: physicochemical. The procedure:
The binding efficiency of therapeutics such as daunorubicin, idarubicin, and others were analyzed using UV-vis spectrophotometry, as well as centrifugation assays (SEE FIGS. 18-39). In all cases, nanodiamond-drug interactions were capable of comprehensively pelleting the therapeutics (SEE FIGS. 19, 22, 25, 28, 30, 33, 36, and 39), indicating potent adsorption which was further confirmed via spectrophotometric analysis […], […], 1-32, 34-35, and 37-38).

Data set [12] is described as follows: Desorption of drug from Nanodiamond conjugates in water and PBS. The format is physicochemical.

Turning to 4-hydroxytamoxifen [4-OHT], in data set [1], the “average particle size upon complexing with NDs” value turned out to be 278.9 nm. In data set [1] (in 5% DMSO, not complexed), the “mean diameter (particle size)” value was 485.1 nm. In [2], the “UV-Vis absorbance of supernatant before and after centrifugation (pulldown)” value was “insignificant change in the UV-Vis absorbance”.

Consider `CC(C)[C@H](CO)Nc1nc(Nc2cccc(Cl)c2)c2ncn(C(C)C)c2n1` [Purvalanol A], for which the “average particle size upon complexing with NDs” value in data set [1] amounted to 556 nm. Also, the “turbidity after dilution in water” value in data set [3] is given as “precipitated out of solution, producing a turbid liquid”. In data set [4], the DNA fragmentation entry is “Fragmentation was evident”.

Regarding insulin: bovine insulin (Sigma-Aldrich), the “desorption (release) of standard insulin from NDs” value in data set [5] was found to be 31.3±1.6%. Further, in data set [6] (5 days), the “amount of insulin released with NaOH relative to water” value is “more than 20 times”. In addition, in [6] (NaOH (pH 10.5)), the “total insulin eluted from NDs by day 5” value was determined as 45.8±3.8 wt % and the “cumulative insulin released from NDs by day 1” value is recorded as 32.7±1.9 wt %. Also, in data set [6] (water), the “total insulin eluted from NDs by day 5” value stood at 2.2±1.2 wt % and the “cumulative insulin released from NDs by day 1” value is 0.2±0.1 wt %. Also, in [7], the “zeta potential at pH 10.5 compared with pH 7” value is recorded as “substantially more negative”. Further, the zeta potential result in data set [7] (at both pH 7 and 10.5) is “negative values”. In data set [7] (pH 7), the PDI came to 0.97 ± 0.046 and the “Average Size (μm)” value was 1.59 ± 0.038 μm. In addition, in data set [7] (pH 10.5), the PDI was 0.99 ± 0.011 and the “Average Size (μm)” value came to 2.28 ± 0.66 μm. For the same compound, the relative viability entry in data set [8] is listed as “increased viability at higher insulin concentrations”. Besides, the “relative expression of Ins1” value with Insulin 1 (Ins1) is listed as “lowest expression of Ins1”. The “relative expression of Csf3/G-csf” value in data set [9] is reported as “comparably higher than that of Ins1”. Moreover, the isoelectric point entry in data set [10] is listed as “approximately 5.6”.

As to `COc1cccc2c1C(=O)c1c(O)c3c(c(O)c1C2=O)C[C@@](O)(C(C)=O)C[C@@H]3O[C@H]1C[C@H](N)[C@H](O)[C@H](C)O1` [DAUN, daunorubicin], the “binding / adsorption between ND surface and therapeutic” value in data set [11] is reported as “exceptional binding”. For the same compound, in [12], the “release profile of drug desorbed from Nanodiamond conjugates” value (from here on “release profile of drug desorbed”) is reported as “drug elution is sustained over several hours”.

On to `CC(=O)[C@]1(O)Cc2c(O)c3c(c(O)c2[C@@H](O[C@H]2C[C@H](N)[C@H](O)[C@H](C)O2)C1)C(=O)c1ccccc1C3=O` [IDA, idarubicin], for which the “binding / adsorption between ND surface and therapeutic” value in data set [11] is “exceptional binding”. For the same compound, the “release profile of drug desorbed” value in data set [12] was “drug elution is sustained over several hours”.

Consider `COc1cccc2c1C(=O)c1c(O)c3c(c(O)c1C2=O)C[C@@](O)(C(=O)CO)C[C@@H]3O[C@H]1C[C@H](N)[C@@H](O)[C@H](C)O1` [EPI, epirubicin], for which, in data set [11], the “binding / adsorption between ND surface and therapeutic” value is given as “exceptional binding”. For the same compound, the “release profile of drug desorbed” value in data set [12] is on record as “drug elution is sustained over several hours”.
